According to US20230391788A1 (NAVIN SAXENA RESEARCH & TECHNOLOGY PVT. LTD., priority 2020, published 2023):

How the values were obtained:
[1] = after oral dosing; cited from earlier work
[2] = Storage stability of naltrexone decanoate; type: physicochemical; details: storage condition of less than 25° C.

| SMILES | time at which peak plasma levels occur [1] | period over which stable [2] |
| --- | --- | --- |
| Oc1ccc2c3c1O[C@H]1[C@H](O)CC[C@@]4(O)[C@@H](C2)N(CC2CC2)CC[C@]314 [6-β-naltrexol] | one | – |
| O=C1CC[C@@]2(O)[C@H]3Cc4ccc(O)c5c4[C@@]2(CCN3CC2CC2)[C@H]1O5 [naltrexone, Naltrexone, reference compound] | one | – |
| CCCCCCCCCC(=O)Oc1ccc2c3c1O[C@H]1C(=O)CC[C@@]4(O)[C@@H](C2)N(CC2CC2)CC[C@]314 [naltrexone decanoate, 17-(cyclopropylmethyl)-4,5-epoxy-14-hydroxy-3-[(1-oxodecyl)oxy]-(5α)-morphinan-6-one] | – | ≤ 60 months |
